Reference: patent US9476017B2, “Compositions and methods for cleaning, disinfecting, and sanitizing that are effluent neutral” (Diversey, Inc, priority 2012, dated 2016)
Where two headings read alike, the source gives them in different places.

Assays:
[1] = Experimental: Formulation B was combined with three sanitizing additives hydrogen peroxide (i.e., “peroxide”), peracetic acid (PAA) and chlorine dioxide. Testing was conducted at 80° C. to simulate CIP tank conditions. Ferment soil was added to the tests to further simulate real conditions.
Lactobacillus brevis = assay: Efficiency against Lactobacillus brevis, EN 1276; format: cell-based
Experimental: (§1) Testing was done according to test protocols EN 1276 and EN 1650. Formulation B and Formulation D (a peracetic acid-based formulation) were tested separately and in combination. Formulation B was also tested in combination with hydrogen peroxide. Tests were run at 20°, 40° C. and 60° C. in the presence of 1% ferment soil at contact times of 10, 20 and 30 minutes. Kill rates are expressed as log reductions.

fermentative wild yeasts = assay: Efficiency against fermentative wild yeasts; format: cell-based; conditions: all temperatures, 20 minutes or longer
Experimental: as §1
At 20° C. and 40° C., 0.28% peroxide […] was ineffective on Lactobacilli. The higher kill rate at 60° C. is mainly due to temperature.

Saccharomyces cerevisiae = assay: Yeast growth test (Example 6); format: cell-based; conditions: supplement at concentrations above 10 ppm; 30° C.; compared to control without supplements
Experimental: These experiments were used to investigate whether potential residues of cleaning formulations described herein have any impact on the growth or metabolism of a fermentative yeast cell. Saccharomyces cerevisiae was selected as a typical member of fermenting yeasts. Malt extract agar tubes with an angular surface were used to grow starter cultures. Two globules that were covered with Saccaromyces cerevisiae (from a freeze culture collection DSM 1333) were streaked onto an agar surface and incubated at 30° C. for 3 days. Yeast colonies were grown, transferred to liquid growth media and incubated for 15-20 hours at 30° C. A second transfer was conducted into fresh liquid medium. The grown medium was transferred into closed, sterile tubes and centrifuged for 20 minutes at 8000 G. The liquid was decanted and the pellets collected in 10 mL of sterile Ringer solution. A Thoma Hemocytometer was prepared. Cells of 4 squares across were counted. Counted numbers from 4 squares were averaged and cell concentrations were calculated. The concentration of cells in the original mixture=number of cells counted*10^6=cells/mL. Dilutions were made to reach final cell concentration of 1×10^6/mL in culture medium. […] Start extinction was measured at 578 nm with help of a spectrophotometer. […] Every 1 to 2 hours samples were taken and extinctions were measured. […] The difference ∂ of extinction to start was calculated. […]

Compound: [O][Cl+][O-] [Chlorine dioxide, chlorine dioxide]
- stability ([1]; 10 ppm, 80° C., ferment soil): very unstable

Compound: OO [hydrogen peroxide]
- effectiveness (Lactobacillus brevis; 0.28% (1000 ppm), at 20° C. and 40° C.): ineffective
- effectiveness (Lactobacillus brevis; 1.4% (5000 ppm), at 40° C. and 20 minute contact times): became effective

Compound: CC(=O)OO [Peracetic acid, peracetic acid]
- effectiveness (fermentative wild yeasts; 0.15% (225 ppm PAA)): very effective
- effectiveness (fermentative wild yeasts; 0.3% (450 ppm)): very effective
- stability ([1]; in Formulation B and ferment soil, versus high alkaline solutions): better stability
- half life ([1]; in the presence of Formulation B, 80° C., ferment soil): > 30 min
- effectiveness (Lactobacillus brevis; 0.3% (450 ppm), all temperatures, 20 minutes or longer): very effective

Compound: [Na+].[OH-] [Caustic Soda, sodium hydroxide]
- S. cerevisiae cell growth (Saccharomyces cerevisiae): significantly decreased or even inhibited
